Results on three molecules are retold here after patent US7109380B2, “Cyclopentenedione antifungal compounds and methods for their use” (The University of Mississippi, priority 2004, dated 2006).

What all share (type): cell-based
The test system of one test is Botrytis cinerea. Nature of the test: 96-well microtiter fungal growth assay. From the text: (§1) Pathogen collection. Isolates of Colletotrichum acutatum Simmonds, Colletotrichum fragariae Brooks, and Colletotrichum gloeosporioides (Penz.) Penz. & Sacc. in Penz. were obtained from B. J. Smith, USDA, ARS, Small Fruit Research Station, Poplarville, Mass. Colletotrichum fragariae (isolate CF63), C. acutatum (isolate CAGoff), and C. gloeosporioides (isolate CG162) were used for all pathogen and bioautography studies. Isolate CF63 is one of the most virulent isolates at infecting strawberry plants and inducing both crown and fruit rot (Smith and Black, 1990). CF63, CAGoff, and CG162 were used as standard test isolates because of our extensive knowledge of these isolates and their known fungicide sensitivity profiles in both bioautography and microtiter formats. The three Colletotrichum species were isolated from strawberry (Fragaria xananassa Duchesne). Botrytis cinerea Pers.:Fr, was isolated from commercial grape (Vitis vinifera L.) and Fusarium oxysporum Schlechtend:Fr from orchid (Cynoches sp.) by David E. Wedge, USDA ARS Natural Products Utilization Research Unit. Phomopsis viticola (Sacc.) and P. obscurans (Ellis & Everh.) Sutton were from Mike A. Ellis, Ohio State University, Wooster, Ohio. Fungi were grown on potato-dextrose agar (PDA, Difco, Detroit Mich.) in 9 cm petri dishes and incubated in a growth chamber at 24±2° C. and under cool-white fluorescent lights ([…]·m^−2·sec^−1 light) with 12-h photoperiod.
(§2) Inoculum preparation. Conidia were harvested from 7–10 day-old cultures by flooding plates with 5 mL of sterile distilled water and dislodging conidia by softly brushing the colonies with an L-shaped glass rod. Conidial suspensions were filtered through sterile miracloth (Calbiochem-Novabiochem Corp., La Jolla Calif.) to remove mycelia. Conidia concentrations were determined photometrically, from a standard curve based on the absorbance at 625 nm and suspensions were then adjusted with sterile distilled water to a concentration of 1.0×10^6 conidia/mL.
(§3) Microtiter assay. A standardized 96-well microtiter plate assay developed for discovery of natural product fungicidal agents. A 96-well microtiter assay was used to determine sensitivity of B. cinerea, C. acutatum, C. fragariae, C. gloeosporioides, F. oxysporum, Phomopsis viticola, and P. obscurans to the various antifungal agents in comparison with known fungicidal standards. Vinclozolin, captan, and thiabendazole, which represent three different modes of action, were used as standards in this experiment. Each fungus was challenged in a dose-response format using test compounds where the final treatment concentrations were 0.3, 3.0 and 30.0 μM. Microtiter plates (Nunc MicroWell, untreated; Roskilde, Denmark) were covered with a plastic lid and incubated in a growth chamber at 24±1 C and 12 h photoperiod under 60±5 μmol light. Growth was then evaluated by measuring absorbance of each well at 620 nm using a microplate photometer (Packard Spectra Count, Packard Instrument Co., Downers Grove, Ill.).
(§4) Microbioassay Experimental Design. Chemical sensitivity of each fungus 96-well microtiter assay is used to determine sensitivity of B. cinerea, C. acutatum, C. fragariae, C. gloeosporioides, F. oxysporum, Phomopsis viticola, and P. obscurans. Each chemical is evaluated in duplicate at each dose (0.3, 3.0 and 30.0 μM) and repeated twice in time. Sixteen wells containing broth and inoculum serves as positive controls, eight wells containing solvent at the appropriate concentration and broth without inoculum are used as negative controls. Mean absorbance values and standard errors is used to evaluate fungal growth at 48 hrs and 72 hrs except for P. obscurans and P. viticola the data are recorded at 120 hrs. […] Treatments are arranged as a split-plot design replicated twice in time. Whole-plots were fungal isolates and sub-plots are chemicals. Each dose level and response time is analyzed separately. […]

Another test concerns Colletotrichum acutatum. Nature of the test: 96-well microtiter fungal growth assay.
From the text: as §1, §2, §3, §4

For a further test, the system named is Colletotrichum fragariae. Nature of the test: 96-well microtiter fungal growth assay.
From the text: as §1, §2, §3, §4

In test [1] the test system is Colletotrichum gloeosporioides. The experiment in a line: 96-well microtiter fungal growth assay.
From the text: as §1, §2, §3, §4

The next test has as its system Fusarium oxysporum. Nature of the test: 96-well microtiter fungal growth assay.
From the text: as §1, §2, §3, §4

The subject of the next test is Phomopsis obscurans. The experiment in a line: 96-well microtiter fungal growth assay.
From the text: as §1, §2, §3
(§5) Microbioassay Experimental Design. Chemical sensitivity of each fungus 96-well microtiter assay is used to determine sensitivity of B. cinerea, C. acutatum, C. fragariae, C. gloeosporioides, F. oxysporum, Phomopsis viticola, and P. obscurans. Each chemical is evaluated in duplicate at each dose (0.3, 3.0 and 30.0 μM) and repeated twice in time. Sixteen wells containing broth and inoculum serves as positive controls, eight wells containing solvent at the appropriate concentration and broth without inoculum are used as negative controls. […] Treatments are arranged as a split-plot design replicated twice in time. Whole-plots were fungal isolates and sub-plots are chemicals. Each dose level and response time is analyzed separately. The SAS system's analysis of variance procedure (Statistical Analysis System, Cary, N.C.) is used to identify significant factors and Fisher's protected LSD is used to separate means.

The subject of the next test is Phomopsis viticola. The experiment in a line: 96-well microtiter fungal growth assay.
From the text: as §1, §2, §3, §5

For test [2], the system named is Azole-susceptible and Azole-resistant Candida albicans Strains. The experiment in a line: Antifungal activity against azole-susceptible and azole-resistant patient isolates. To be noted: for IC50 / IC80: Candida albicans. The procedure: Antimicrobial Assay. Susceptibility testing is performed using a modified version of the National Committee for Clinical Laboratory Standards methods. M intracelluare is tested using a modified method of Franzblau, et al. Seventy-two to 96 h prior to the assay, the M intracellulare subculture is prepared by resuspending cells from the surface of the slant in Middlebrook 7H9 broth with OADC enrichment and incubating at 37° C. and 10% CO2. On the day of the assay, prepared samples (dissolved in DMSO) are serially-diluted using 20%/0.9% DMSO/saline and transferred in duplicate to 96 well flat bottom microplates. Candida spp. and C. neoformans inocula are prepared by picking 1–3 colonies from agar plates and resuspending in ˜5 mL 0.9% sterile saline. The absorption of 10011 of the saline suspensions and the M. intracellulare subculture at 630 nm using the EL-340 Biokinetics Reader (Bio-Tek Instruments, Vermont) is compared either the 0.5 McFarland standard of 0.03 (Mi) or standard curves. The microorganisms are diluted in broth [RPMI 1640/2% dextrose/MOPS at pH 7.3 (Cellgro) for Candida spp., Sabouraud Dextrose for C. neoformans, and 5% Alamar Blue™(BioSource International, Camarillo, Calif.) in Middlebrook 7H9 broth with OADC enrichment, pH=7.3 for M. intracellulare to afford final target inocula of: Candida spp.: 1.0×10^4, C. neoformans: 1.0×10^5, and M. intracellulare: 2.0×10^6 after addition to the samples. The microbial inocula are added to the samples to achieve a final volume of 200 μl. Growth (saline only), solvent and blank (media only) controls are included on each test plate. Drug controls [Ciprofloxacin (ICN Biomedicals, Ohio) for bacteria and Amphotericin B (ICN Biomedicals, Ohio) for fungi] are included in each assay. All organisms are read at either 630 nm using the EL-340 Biokinetics Reader (Bio-Tek Instruments, Vermont) or 544ex/590em, (M. intracellulare) using the Polarstar Galaxy Plate Reader (BMG LabTechnologies, Germany) prior to and after incubation: Candida spp. at 37° C. for 18–24 h, C. neoformans at 30° C. for 72 h, and M. intracellulare at 37° C. and 10% CO2 for 72 h. Percent growth is calculated and plotted versus test concentration to afford the IC50 (sample concentration that affords 50% growth of the organism) and the minimum inhibitory concentration (MIC) and minimum fungicidal or bactericidal concentrations (MFC/MBCs). The MIC is defined as the lowest test concentration that allows no detectable growth (for M. intracellulare no color change from blue to pink). Minimum fungicidal or bactericidal concentrations are determined by removing 5 μl from each clear (or blue) well, transferring to agar and incubating as previously mentioned. The MFC/MBC is defined as the lowest test concentration that kills 100% of the organism (allows no growth on agar).
The bioassay method is a modified version of the National Committee for Clinical Laboratory Standards methods, and is same as the one described in example 8 by which the biological data of compounds 1 and 2 (Tables 1 and 2) were obtained, except that the pH of the culture media for Candida spp. was changed from 7.3 to 4.5.

Where [3] appears, read: Isolate 1, azole-susceptible strain (first listing, r6).
Setting [4] is: Isolate 1, azole-susceptible strain (second listing, r10).
Setting [5] is: Isolate 2, azole-resistant strain.
[6] abbreviates: Isolate 5, azole-resistant strain.
Setting [7] is: Isolate 8, azole-resistant strain.
Setting [8] is: Isolate 17, azole-resistant strain.

Values after ≈ are worked out from the molar mass of the structure shown.
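For Mean percent fungal growth inhibition of Botrytis cinerea in this document: percent relative to untreated positive growth controls.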
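For Mean percent fungal growth inhibition of Colletotrichum acutatum in this document: percent relative to untreated positive growth controls.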
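For Mean percent fungal growth inhibition of Colletotrichum fragariae in this document: percent relative to untreated positive growth controls.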
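For Mean percent fungal growth inhibition of Colletotrichum gloeosporoides in this document: percent relative to untreated positive growth controls.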

As to `CO/C=C(/C(=O)OC)c1ccccc1Oc1cc(Oc2ccccc2C#N)ncn1` [Azoxystrobin], the “Mean percent fungal growth inhibition of Botrytis cinerea” value is −30.4 ± 40.8% with Botrytis cinerea (0.3 μm, 48 hrs); −67.3 ± 7.6% with Botrytis cinerea (0.3 μm, 72 hrs); −45.8 ± 32.5% in the test on Botrytis cinerea (3.0 μm, 48 hrs); −79.8 ± 3.6% in the test with Botrytis cinerea (3.0 μm, 72 hrs); −58.3 ± 26.5% in the test on Botrytis cinerea (30 μm, 48 hrs); −89.1 ± 2.1% in the test with Botrytis cinerea (30 μm, 72 hrs). In addition, the “Mean percent fungal growth inhibition of Colletotrichum acutatum” value with Colletotrichum acutatum (0.3 μm, 48 hrs) is reported as −75.1 ± 1.8%; with Colletotrichum acutatum (0.3 μm, 72 hrs) it was −46.0 ± 1.4%; in the test on Colletotrichum acutatum (3.0 μm, 48 hrs) it was −89.2 ± 1.8%; in the test with Colletotrichum acutatum (3.0 μm, 72 hrs), −77.4 ± 1.6%; in the test with Colletotrichum acutatum (30 μm, 48 hrs), −94.3 ± 1.1%; with Colletotrichum acutatum (30 μm, 72 hrs), −84.1 ± 0.8%. Also, the “Mean percent fungal growth inhibition of Colletotrichum fragariae” value in the test on Colletotrichum fragariae (0.3 μm, 48 hrs) is reported as −68.8 ± 4.0%; in the test on Colletotrichum fragariae (0.3 μm, 72 hrs), −33.5 ± 17.4%; in the test with Colletotrichum fragariae (3.0 μm, 48 hrs), −78.9 ± 4.4%; in the test with Colletotrichum fragariae (3.0 μm, 72 hrs) it was −80.6 ± 4.8%; in the test with Colletotrichum fragariae (30 μm, 48 hrs), −82.0 ± 4.9%; with Colletotrichum fragariae (30 μm, 72 hrs) it was −86.4 ± 4.5%. Moreover, the “Mean percent fungal growth inhibition of Colletotrichum gloeosporoides” value in test [1] (0.3 μm, 48 hrs) is recorded as −91.2 ± 2.1%; in test [1] (0.3 μm, 72 hrs), −71.0 ± 1.4%; in test [1] (3.0 μm, 48 hrs), −96.3 ± 0.9%; in test [1] (3.0 μm, 72 hrs), −87.6 ± 2.0%; in test [1] (30 μm, 48 hrs), −97.7 ± 0.5%; in test [1] (30 μm, 72 hrs) it was −89.8 ± 1.1%. In addition, the “Mean percent fungal growth inhibition of Fusarium oxysporum” value is given as −13.0 ± 6.0% in the test on Fusarium oxysporum (0.3 μm, 48 hrs); 3.8 ± 3.6% in the test on Fusarium oxysporum (0.3 μm, 72 hrs); −66.4 ± 1.4% in the test on Fusarium oxysporum (3.0 μm, 48 hrs); −40.1 ± 3.5% in the test with Fusarium oxysporum (3.0 μm, 72 hrs); −87.3 ± 0.6% in the test on Fusarium oxysporum (30 μm, 48 hrs); −64.6 ± 0.8% in the test with Fusarium oxysporum (30 μm, 72 hrs). In addition, the “Percent change in fungal growth vs control (negative = inhibition)” value in the test on Phomopsis obscurans (0.3 μm, 120 hrs) was −73.2 ± 6.7%; in the test with Phomopsis obscurans (0.3 μm, 144 hrs), −70.2 ± 7.0%; with Phomopsis obscurans (3.0 μm, 120 hrs), −90.9 ± 6.5%; in the test with Phomopsis obscurans (3.0 μm, 144 hrs), −87.5 ± 5.3%; in the test on Phomopsis obscurans (30 μm, 120 hrs) it was −99.3 ± 0.5%; in the test on Phomopsis obscurans (30 μm, 144 hrs), −98.2 ± 0.6%. Besides, the “Mean percent fungal growth inhibition of Phomopsis viticola” value in the test with Phomopsis viticola (0.3 μm, 120 hrs) is on record as −29.5 ± 45.0%; in the test on Phomopsis viticola (0.3 μm, 144 hrs), −73.4 ± 16.0%; in the test on Phomopsis viticola (3.0 μm, 120 hrs), −124.5 ± 33.0%; in the test on Phomopsis viticola (30 μm, 120 hrs), −154.1 ± 39.4%; in the test on Phomopsis viticola (30 μm, 144 hrs) it was −97.9 ± 1.3%.

In the case of `OC(Cn1cncn1)(Cn1cncn1)c1ccc(F)cc1F` [Fluconazole, reference compound], the IC50 (usually the point on the concentration scale where inhibition reaches its midpoint) in test [2] (setting [3]) came to 1 µg/mL (≈ 3.27 µM); in test [2] (setting [4]), 0.1 µg/mL (≈ 0.327 µM); in test [2] (setting [5]), 1 µg/mL (≈ 3.27 µM); in test [2] (setting [6]), 7.5 µg/mL (≈ 24.5 µM); in test [2] (setting [7]), 15 µg/mL (≈ 49 µM); in test [2] (setting [8]) it was 40 µg/mL (≈ 131 µM). Further, the IC80 (usually the concentration needed for an effect of 80%) turned out to be 1.5 µg/mL (≈ 4.9 µM) in test [2] (setting [3]); 0.2 µg/mL (≈ 0.653 µM) in test [2] (setting [4]); 5 µg/mL (≈ 16.3 µM) in test [2] (setting [5]); 10 µg/mL (≈ 32.7 µM) in test [2] (setting [6]); 20 µg/mL (≈ 65.3 µM) in test [2] (setting [7]); 95 µg/mL (≈ 310 µM) in test [2] (setting [8]). The concentration for an effect of 95% (IC95) (in general, the point of the concentration-response curve where the effect stands at 95%) in test [2] (setting [3]) stood at 2.00 µg/mL (≈ 6.53 µM); in test [2] (setting [4]) it was 100.00 µg/mL (≈ 327 µM); in test [2] (setting [5]) it was 10.00 µg/mL (≈ 32.7 µM); in test [2] (setting [6]) it was 10.00 µg/mL (≈ 32.7 µM); in test [2] (setting [7]) it was 25.00 µg/mL (≈ 81.6 µM). The “Decreases in susceptibility to fluconazole of the isolates” value in test [2] (resistant isolates relative to susceptible strain) is “up to 400 fold”.

On to `CCCCNC(=O)n1c(NC(=O)OC)nc2ccccc21` [benomyl], for which the IC50 in the test on Phomopsis obscurans (Paraphomopsis obscurans, 120 h, read-out: IC50 (growth inhibition)) was below 6.25 µM.
